test: Displacement of [3H]2-BFI from I2-IBS in human frontal cortex membranes; format: cell membranes, Membrane

Row | Log Ki | Compound
1 | -5.91 | N=C(N)NC(=O)CCCCCCCCCCCCC(=O)NC(=N)N
2 | -7.48 | N=C(N)NCCCCCCCCCCCCNC(=N)N
3 | -6.11 | N=C(N)NC(=O)CCCCCCCCC(=O)NC(=N)N
4 | -5.06 | N=C(N)NC(=O)CCCCCCCCCCCC(=O)NC(=N)N
5 | -5.69 | N=C(N)NC(=O)CCCCCCCCCCC(=O)NC(=N)N
6 | -5.7 | N=C(N)NC(=O)CCCCCCCCCCCCCCC(=O)NC(=N)N
7 | -5.2 | N=C(N)NC(=O)CCCCCCCCCC(=O)NC(=N)N

Row | Compound | Log Ki
8 | c1ccc2c(c1)OCC(C1=NCCN1)O2 (stereo not drawn) [IDAZOXAN] | -7.43

— ChEMBL document CHEMBL1140455, “On the search of new I2-IBS aliphatic ligands: bis-guanidino carbonyl derivatives” (Bioorg Med Chem Lett, 2007)
